The source of these data is paper PMC5218480 (PLoS ONE, 2017).

The assay relates to MV-4-11 cells. As to the kind of experiment: Gene expression microarray analysis (Affymetrix PrimeView) and GSEA. The assay is classed as cell-based, human. Also on record: RFU PODN (11730768_x_at) / Fold change /veh PODN (11730768_x_at) / RFU LINC00158 (11744669_a_at) / Fold change /veh LINC00158 (11744669_a_at) / RFU DUSP10 (11751237_a_at) / Fold change /veh DUSP10 (11751237_a_at) / RFU ID3 (11757404_x_at) / Fold change /veh ID3 (11757404_x_at) / RFU PLEKHG5 (11737974_s_at) / Fold change /veh PLEKHG5 (11737974_s_at) / RFU LRRC4B (11730491_at) / Fold change /veh LRRC4B (11730491_at) / RFU GIMAP4 (11747438_a_at) / Fold change /veh GIMAP4 (11747438_a_at) / RFU KRT8 (11758183_x_at) / Fold change /veh KRT8 (11758183_x_at) / RFU CNN1 (11734310_a_at) / Fold change /veh CNN1 (11734310_a_at) / RFU VPS37D (11726825_at) / Fold change /veh VPS37D (11726825_at) / RFU C10orf10 (11716522_x_at) / Fold change /veh C10orf10 (11716522_x_at) / RFU KIR2DL2 /// KIR2DL4 /// KIR2DL5A /// KIR2DL5B /// KIR2DS1 /// KIR2DS2 /// KIR2DS3 /// KIR2DS4 /// KIR3DL3 /// KIR3DL3 /// KIR3DS1 (11738374_at) / Fold change /veh KIR2DL2 /// KIR2DL4 /// KIR2DL5A /// KIR2DL5B /// KIR2DS1 /// KIR2DS2 /// KIR2DS3 /// KIR2DS4 /// KIR3DL3 /// KIR3DL3 /// KIR3DS1 (11738374_at) / RFU C1QL1 (11718748_at) / Fold change /veh C1QL1 (11718748_at) / RFU TMPRSS4 (11747572_a_at) / Fold change /veh TMPRSS4 (11747572_a_at) / RFU HAMP (11756126_x_at) / Fold change /veh HAMP (11756126_x_at) / RFU RNFT2 (11725882_a_at) / Fold change /veh RNFT2 (11725882_a_at) / RFU NR4A2 (11747474_a_at) / Fold change /veh NR4A2 (11747474_a_at) / RFU ABCC12 (11746883_a_at) / Fold change /veh ABCC12 (11746883_a_at) / RFU TMEM136 (11760407_x_at) / Fold change /veh TMEM136 (11760407_x_at) / RFU CLDN22 /// WWC2 (11732394_at) / Fold change /veh CLDN22 /// WWC2 (11732394_at) / RFU HLA-DPB1 (11760878_x_at) / Fold change /veh HLA-DPB1 (11760878_x_at) / RFU SPINT1 (11716480_a_at) / Fold change /veh SPINT1 (11716480_a_at) / RFU GAP43 (11754022_s_at) / Fold change /veh GAP43 (11754022_s_at) / RFU A4GNT (11735810_at) / Fold change /veh A4GNT (11735810_at) / RFU PRB3 (11715151_x_at) / Fold change /veh PRB3 (11715151_x_at) / RFU TUBB4B (11761932_at) / Fold change /veh TUBB4B (11761932_at) / RFU CAPN14 (11732068_a_at) / Fold change /veh CAPN14 (11732068_a_at) / RFU TMCC2 (11721928_a_at) / Fold change /veh TMCC2 (11721928_a_at) / RFU IRGQ (11745062_a_at) / Fold change /veh IRGQ (11745062_a_at) / RFU FAM174B (11720279_a_at) / Fold change /veh FAM174B (11720279_a_at) / RFU TMPRSS4 (11748680_a_at) / Fold change /veh TMPRSS4 (11748680_a_at) / RFU FAM212B (11763350_a_at) / Fold change /veh FAM212B (11763350_a_at) / RFU PLEKHG5 (11743358_a_at) / Fold change /veh PLEKHG5 (11743358_a_at) / RFU ZSCAN30 (11745921_a_at) / Fold change /veh ZSCAN30 (11745921_a_at) / RFU CMKLR1 (11741424_a_at) / Fold change /veh CMKLR1 (11741424_a_at) / RFU LOC101060620 /// MAPK8IP1 (11723275_at) / Fold change /veh LOC101060620 /// MAPK8IP1 (11723275_at) / RFU SPTSSB (11747773_x_at) / Fold change /veh SPTSSB (11747773_x_at) / RFU PRSS12 (11739890_at) / Fold change /veh PRSS12 (11739890_at) / RFU BIN1 (11741810_x_at) / Fold change /veh BIN1 (11741810_x_at) / RFU WNT11 (11732464_a_at) / Fold change /veh WNT11 (11732464_a_at) / RFU C10orf10 (11716521_a_at) / Fold change /veh C10orf10 (11716521_a_at) / RFU C5orf56 (11738089_at) / Fold change /veh C5orf56 (11738089_at) / RFU CYB561 (11721691_x_at) / Fold change /veh CYB561 (11721691_x_at) / RFU ANKRD19P (11752326_a_at) / Fold change /veh ANKRD19P (11752326_a_at) / RFU OR2T12 /// OR2T33 /// OR2T8 (11738714_s_at) / Fold change /veh OR2T12 /// OR2T33 /// OR2T8 (11738714_s_at) / RFU VCAN (11748164_a_at) / Fold change /veh VCAN (11748164_a_at) / RFU JSRP1 (11732532_at) / Fold change /veh JSRP1 (11732532_at) / RFU KRTAP10-11 (11738290_x_at) / Fold change /veh KRTAP10-11 (11738290_x_at) / RFU MYO3A (11730013_a_at) / Fold change /veh MYO3A (11730013_a_at) / RFU EBF3 (11725865_a_at) / Fold change /veh EBF3 (11725865_a_at) / RFU CAMK2N1 (11719241_x_at) / Fold change /veh CAMK2N1 (11719241_x_at) / RFU C5orf56 (11738088_a_at) / Fold change /veh C5orf56 (11738088_a_at) / RFU OLFML3 (11715873_a_at) / Fold change /veh OLFML3 (11715873_a_at) / RFU LOC100653217 /// NTM (11731650_a_at) / Fold change /veh LOC100653217 /// NTM (11731650_a_at) / RFU MAPK11 (11762145_a_at) / Fold change /veh MAPK11 (11762145_a_at) / RFU FIZ1 (11724087_x_at) / Fold change /veh FIZ1 (11724087_x_at) / RFU OASL (11726364_x_at) / Fold change /veh OASL (11726364_x_at) / RFU SOX15 (11748057_x_at) / Fold change /veh SOX15 (11748057_x_at) / RFU CD79A (11719716_a_at) / Fold change /veh CD79A (11719716_a_at) / RFU HIST1H1D (11736915_at) / Fold change /veh HIST1H1D (11736915_at) / RFU CASKIN2 (11723855_a_at) / Fold change /veh CASKIN2 (11723855_a_at) / RFU LOC730098 (11760151_x_at) / Fold change /veh LOC730098 (11760151_x_at) / RFU OR4N2 (11742367_at) / Fold change /veh OR4N2 (11742367_at) / RFU PRRT2 (11749266_a_at) / Fold change /veh PRRT2 (11749266_a_at) / RFU SNX32 (11753110_a_at) / Fold change /veh SNX32 (11753110_a_at) / RFU CDHR5 (11726645_a_at) / Fold change /veh CDHR5 (11726645_a_at) / RFU RCAN1 (11760418_a_at) / Fold change /veh RCAN1 (11760418_a_at) / RFU FAM167A (11723789_a_at) / Fold change /veh FAM167A (11723789_a_at) / RFU FAM26E (11764081_at) / Fold change /veh FAM26E (11764081_at) / RFU ISYNA1 (11749810_s_at) / Fold change /veh ISYNA1 (11749810_s_at) / RFU ACY1 (11761880_at) / Fold change /veh ACY1 (11761880_at) / RFU 11764098_at / Fold change /veh 11764098_at / RFU SAMD14 (11745864_x_at) / Fold change /veh SAMD14 (11745864_x_at) / RFU NPB (11741838_a_at) / Fold change /veh NPB (11741838_a_at) / RFU TMPRSS6 (11731388_a_at) / Fold change /veh TMPRSS6 (11731388_a_at) / RFU KRTAP10-2 (11738614_at) / Fold change /veh KRTAP10-2 (11738614_at) / RFU ARHGAP8 /// PRR5-ARHGAP8 (11727945_x_at) / Fold change /veh ARHGAP8 /// PRR5-ARHGAP8 (11727945_x_at) / RFU KRTAP5-7 /// NADSYN1 (11734609_at) / Fold change /veh KRTAP5-7 /// NADSYN1 (11734609_at) / RFU RASL12 (11751679_a_at) / Fold change /veh RASL12 (11751679_a_at) / RFU CDKN2B (11736163_a_at) / Fold change /veh CDKN2B (11736163_a_at) / RFU PRF1 (11729649_at) / Fold change /veh PRF1 (11729649_at) / RFU, ZNF638 /// ZNF638-IT1 / Fold change vs veh, ZNF638 /// ZNF638-IT1 / RFU, PANK3 / Fold change vs veh, PANK3 / RFU, SH3YL1 / Fold change vs veh, SH3YL1 / RFU, ZEB2 / Fold change vs veh, ZEB2 / RFU, NRIP1 / Fold change vs veh, NRIP1 / RFU, PTTG1IP / Fold change vs veh, PTTG1IP / RFU, CAPN2 / Fold change vs veh, CAPN2 / RFU, MED14 / Fold change vs veh, MED14 / RFU, SNORA58 / Fold change vs veh, SNORA58 / RFU, C1orf63 / Fold change vs veh, C1orf63 / RFU, LRRFIP1 / Fold change vs veh, LRRFIP1 / RFU, NDUFAF7 / Fold change vs veh, NDUFAF7 / RFU, SLC12A2 / Fold change vs veh, SLC12A2 / RFU, IBTK / Fold change vs veh, IBTK / RFU, ESF1 / Fold change vs veh, ESF1 / Fold change vs veh, TMEM50B / RFU, TAOK1 / Fold change vs veh, TAOK1 / RFU, ACBD3 / Fold change vs veh, ACBD3 / RFU, TMA16 / Fold change vs veh, TMA16 / RFU, RWDD3 / Fold change vs veh, RWDD3 / RFU, BCAT1 / Fold change vs veh, BCAT1 / RFU, EDEM3 / Fold change vs veh, EDEM3 / RFU, TMEM33 / Fold change vs veh, TMEM33 / RFU, WDR75 / Fold change vs veh, WDR75 / RFU, AHCTF1 / Fold change vs veh, AHCTF1 / RFU, TFRC / Fold change vs veh, TFRC / RFU, ZDHHC17 / Fold change vs veh, ZDHHC17 / RFU, NOM1 / Fold change vs veh, NOM1 / RFU, ARL8B / Fold change vs veh, ARL8B / RFU, ZBTB11 / Fold change vs veh, ZBTB11 / RFU, TAMM41 / Fold change vs veh, TAMM41 / RFU, KIAA1704 /// LOC100996395 / Fold change vs veh, KIAA1704 /// LOC100996395 / RFU, ING1 / Fold change vs veh, ING1 / RFU, TRMT61B / Fold change vs veh, TRMT61B / RFU, FUBP3 / Fold change vs veh, FUBP3 / RFU, TP53 / Fold change vs veh, TP53 / RFU, TNKS2 / Fold change vs veh, TNKS2 / RFU, ZFP14 / Fold change vs veh, ZFP14 / RFU, ACTR2 / Fold change vs veh, ACTR2 / RFU, PPP3R1 / Fold change vs veh, PPP3R1 / RFU, PIK3R1 / Fold change vs veh, PIK3R1 / RFU, HNRNPA1 / Fold change vs veh, HNRNPA1 / RFU, RNF170 / Fold change vs veh, RNF170 / RFU, ZNF28 / Fold change vs veh, ZNF28 / RFU, RNGTT / Fold change vs veh, RNGTT / RFU, OGT / Fold change vs veh, OGT / RFU, BRD1 / Fold change vs veh, BRD1 / RFU, MARS / Fold change vs veh, MARS / RFU, ZNF655 / Fold change vs veh, ZNF655 / RFU, FAHD1 / Fold change vs veh, FAHD1 / RFU, BDP1 / Fold change vs veh, BDP1 / RFU, LRRCC1 / Fold change vs veh, LRRCC1 / RFU, ARID1A / Fold change vs veh, ARID1A / RFU, ZNF146 / Fold change vs veh, ZNF146 / RFU, ZNF330 / Fold change vs veh, ZNF330 / RFU, GPN3 / Fold change vs veh, GPN3 / RFU, C9orf123 / Fold change vs veh, C9orf123 / RFU, N4BP2L2 / Fold change vs veh, N4BP2L2 / RFU, ARFIP1 / Fold change vs veh, ARFIP1 / RFU, FAM179B / Fold change vs veh, FAM179B / RFU, BCL10 / Fold change vs veh, BCL10 / RFU, UHRF1BP1L / Fold change vs veh, UHRF1BP1L / RFU, BET1 / Fold change vs veh, BET1 / RFU, CNOT2 / Fold change vs veh, CNOT2 / RFU, ZNF268 / Fold change vs veh, ZNF268 / Fold change vs veh, ZNF507 / RFU, DGCR2 / Fold change vs veh, DGCR2 / RFU, WDSUB1 / Fold change vs veh, WDSUB1 / Fold change vs veh, HSP90B1 /// MIR3652 / RFU, ADSS / Fold change vs veh, ADSS / RFU, GK / Fold change vs veh, GK / RFU, ZNF148 / Fold change vs veh, ZNF148 / RFU, TAF9 / Fold change vs veh, TAF9 / RFU, SLC1A5 / Fold change vs veh, SLC1A5 / RFU, SLMO2 / Fold change vs veh, SLMO2 / RFU, ABCC4 / Fold change vs veh, ABCC4 / RFU, LOC101060439 /// RAP1B / Fold change vs veh, LOC101060439 /// RAP1B / RFU, RFX7 / Fold change vs veh, RFX7 / RFU, GTPBP10 / Fold change vs veh, GTPBP10 / RFU, CNEP1R1 / Fold change vs veh, CNEP1R1 / RFU, BIVM-ERCC5 /// ERCC5 / Fold change vs veh, BIVM-ERCC5 /// ERCC5 / RFU, ILF3 / Fold change vs veh, ILF3 / RFU 11762660_at / Fold change /veh 11762660_at / RFU VCAN (11757783_s_at) / Fold change /veh VCAN (11757783_s_at) / RFU DDX43 (11728927_at) / Fold change /veh DDX43 (11728927_at) / RFU KRT8 (11758188_x_at) / Fold change /veh KRT8 (11758188_x_at) / RFU NKD1 (11759106_at) / Fold change /veh NKD1 (11759106_at) / RFU SRD5A1 (11742802_a_at) / Fold change /veh SRD5A1 (11742802_a_at) / RFU TPSAB1 /// TPSB2 (11721975_s_at) / Fold change /veh TPSAB1 /// TPSB2 (11721975_s_at) / RFU GSTM3 (11746129_a_at) / Fold change /veh GSTM3 (11746129_a_at) / RFU IL23R (11737362_x_at) / Fold change /veh IL23R (11737362_x_at) / RFU TMEM51 (11727254_a_at) / Fold change /veh TMEM51 (11727254_a_at) / RFU PIWIL2 (11732686_x_at) / Fold change /veh PIWIL2 (11732686_x_at) / RFU ORM1 (11744905_x_at) / Fold change /veh ORM1 (11744905_x_at) / RFU CCDC152 (11743942_at) / Fold change /veh CCDC152 (11743942_at) / RFU ECM1 (11717891_a_at) / Fold change /veh ECM1 (11717891_a_at) / RFU IL23R (11748794_a_at) / Fold change /veh IL23R (11748794_a_at) / RFU TNFAIP8L3 (11732012_x_at) / Fold change /veh TNFAIP8L3 (11732012_x_at) / RFU MBOAT4 (11741988_at) / Fold change /veh MBOAT4 (11741988_at) / RFU 11764193_at / Fold change /veh 11764193_at / RFU TMEM53 (11763286_at) / Fold change /veh TMEM53 (11763286_at) / RFU MAGEB2 (11727129_at) / Fold change /veh MAGEB2 (11727129_at) / RFU TMEM200A (11744735_a_at) / Fold change /veh TMEM200A (11744735_a_at) / RFU CCDC152 (11751479_a_at) / Fold change /veh CCDC152 (11751479_a_at) / RFU FAM211A (11726209_a_at) / Fold change /veh FAM211A (11726209_a_at) / RFU RGS16 (11746705_a_at) / Fold change /veh RGS16 (11746705_a_at) / RFU VCAN (11755009_s_at) / Fold change /veh VCAN (11755009_s_at) / RFU RHOB (11743442_s_at) / Fold change /veh RHOB (11743442_s_at) / RFU RGS16 (11720943_a_at) / Fold change /veh RGS16 (11720943_a_at) / RFU RGS16 (11720944_at) / Fold change /veh RGS16 (11720944_at) / RFU, VPS4B / Fold change vs veh, VPS4B / RFU, CREB1 / Fold change vs veh, CREB1 / RFU, DNAJC13 / Fold change vs veh, DNAJC13 / RFU, GNAQ / Fold change vs veh, GNAQ / RFU, CDK5R1 / Fold change vs veh, CDK5R1 / RFU, ZRANB3 / Fold change vs veh, ZRANB3 / RFU, CUL4A / Fold change vs veh, CUL4A / RFU, CCNY / Fold change vs veh, CCNY / RFU, UFL1 / Fold change vs veh, UFL1 / RFU, COG3 / Fold change vs veh, COG3 / RFU, DIAPH2 / Fold change vs veh, DIAPH2 / RFU, SKA2 / Fold change vs veh, SKA2 / RFU, AFF3 / Fold change vs veh, AFF3 / RFU, LMF1 / Fold change vs veh, LMF1 / RFU, IPO11 / Fold change vs veh, IPO11 / RFU, DFFB / Fold change vs veh, DFFB / RFU, FOXP1 / Fold change vs veh, FOXP1 / RFU, CARD8 / Fold change vs veh, CARD8 / RFU, STRN3 / Fold change vs veh, STRN3 / RFU, ADK / Fold change vs veh, ADK / RFU, RASSF2 / Fold change vs veh, RASSF2 / RFU, WIPF1 / Fold change vs veh, WIPF1 / RFU, LARP1B / Fold change vs veh, LARP1B / RFU, RASA1 / Fold change vs veh, RASA1 / RFU, RB1 / Fold change vs veh, RB1 / RFU, PPFIA1 / Fold change vs veh, PPFIA1 / RFU, MAT2A / Fold change vs veh, MAT2A / RFU, CCT5 / Fold change vs veh, CCT5 / RFU, WDR92 / Fold change vs veh, WDR92 / RFU, CUX1 / Fold change vs veh, CUX1 / RFU, TTC7A / Fold change vs veh, TTC7A / RFU, TMEM135 / Fold change vs veh, TMEM135 / RFU, DEPTOR / Fold change vs veh, DEPTOR / RFU, CPM / Fold change vs veh, CPM / RFU, DNAJB6 / Fold change vs veh, DNAJB6 / RFU, CACNA2D3 / Fold change vs veh, CACNA2D3 / RFU, DTX4 / Fold change vs veh, DTX4 / RFU, TFCP2 / Fold change vs veh, TFCP2 / RFU, GMCL1 /// GMCL1P1 / Fold change vs veh, GMCL1 /// GMCL1P1 / RFU, AEBP2 / Fold change vs veh, AEBP2 / RFU, SNHG1 /// SNORD22 /// SNORD25 /// SNORD26 /// SNORD27 /// SNORD28 /// SNORD29 /// SNORD31 / Fold change vs veh, SNHG1 /// SNORD22 /// SNORD25 /// SNORD26 /// SNORD27 /// SNORD28 /// SNORD29 /// SNORD31 / Fold change (Aza/veh), C12orf56 (ProbeSet 11735607_a_at) / Fold change (ACY-1035/veh), C12orf56 (ProbeSet 11735607_a_at) / Fold change (Aza/veh), FGFR1OP (ProbeSet 11751329_s_at) / Fold change (ACY-1035/veh), FGFR1OP (ProbeSet 11751329_s_at) / Fold change (Aza/veh), VPS36 (ProbeSet 11739960_a_at) / Fold change (ACY-1035/veh), VPS36 (ProbeSet 11739960_a_at) / RFU SYPL1 (11715823_x_at) / Fold change /veh SYPL1 (11715823_x_at) / RFU IGFBP7 (11715501_s_at) / Fold change /veh IGFBP7 (11715501_s_at) / RFU REEP3 (11722064_at) / Fold change /veh REEP3 (11722064_at) / RFU IGLL1 (11728026_x_at) / Fold change /veh IGLL1 (11728026_x_at): dose or concentration left out as unconfirmed. Conditions: MV-4-11 cells, 48 hours.

As to `Nc1ccc(-c2cccs2)cc1NC(=O)c1ccc2c(c1)cc(C1CC1)n2CCN1CCOCC1` [ACY-1035], the “RFU TNFAIP8L3 (11732012_x_at)” value was 8.37 RFU.
